Test results as given in US6114390A, “Amino acid derivatives, pharmaceutical compositions containing these compounds and processes for preparing them” (Karl Thomae GmbH, priority 1997, dated 2000).

Columns and labels:
human Y2 receptor = biological target: T1, human Y2 receptor (Homo sapiens, UniProt P49146); experiment: Receptor binding, BHK cells stably expressing the human Y2 receptor; conditions: read-out: Affinity IC50, humanY2/BHK
T1 construct: expressed in transfected cells; host or cells: BHK
T1 sequence (P49146 1-381): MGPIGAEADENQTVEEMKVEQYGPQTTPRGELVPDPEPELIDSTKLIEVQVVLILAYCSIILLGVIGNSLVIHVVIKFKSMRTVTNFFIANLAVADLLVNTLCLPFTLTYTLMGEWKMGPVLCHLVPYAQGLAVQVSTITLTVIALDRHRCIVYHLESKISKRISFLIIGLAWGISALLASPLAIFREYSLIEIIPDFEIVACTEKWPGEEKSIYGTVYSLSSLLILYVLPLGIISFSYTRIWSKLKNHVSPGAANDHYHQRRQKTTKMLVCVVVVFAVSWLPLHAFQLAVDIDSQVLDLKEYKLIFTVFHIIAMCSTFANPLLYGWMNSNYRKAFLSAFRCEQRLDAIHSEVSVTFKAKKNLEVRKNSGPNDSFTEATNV
Experimental: BHK cells stably expressing the human Y1 receptor: Cells were grown in DMEM with 4.5 g/l glucose, 10% FCS, 1% PENStrep, 1 mg/ml G-418, 1 mg/ml hygromycin B. 96h before receptor binding assay 1mM IPTG was added in order to induce expression. Confluent cells were removed with 0.06% EDTA/PBS (1 min incubation) and resuspended in 15 ml incubation buffer (MEM/25 mM HEPES +1% BSA, […], 0.1% bacitracin, 3.75 mM CaCl2). After 10 min centrifugation at RT (150×g), the pellet was resuspended in 50 ml incubation buffer, respun and resuspended in 30 ml incubation buffer. After counting, the cells were diluted to a final concentration of 2.5×10^5 cells/ml. Two hundred microliters of this cell suspension was incubated 3 h at RT with 30 pM [^125 I]NPY and increasing concentrations of test compounds in a total volume of […]. The incubation was stopped by 10 min centrifugation, 3000×g at 4° C. The pellet was resuspended with 0.25 ml PBS recentrifuged and the pellet measured in a γ-counter.
BHK cells stably expressing the human Y2 receptor: Assay was performed essentially as described for human Y1 expressing BHK cells.

[1] = Food intake in food-deprived rats; type: in vivo, rat; conditions: 15 μg, bilaterally, PVN
Experimental: Food-deprivation experiments were conducted with male Chbb:Thom rats weighing between 300 and 350 g. The animals were individually housed for the duration of the study and allowed free access to normal food together with tap water. Food was removed from the animals for 24 hours starting at 8:00 a.m. At the end of the fasting period compound or vehicle was administered to the animals by infusion into the PVN. Food was returned to the animals and their food intake monitored at various time periods during the following 24 hour period. The food intake of animals treated with test compound was calculated as a percentage of the food intake of control animals (i.e., animals treated with vehicle).

rat Y4 receptor = biological target: T2, rat Y4 receptor (Rattus norvegicus, UniProt Q63447); experiment: Receptor binding, BHK cells stably transfected with rat Y4 receptor; conditions: read-out: Affinity IC50, ratY4/BHK
T2 construct: expressed in transfected cells; host or cells: BHK
T2 sequence (Q63447 whole entry): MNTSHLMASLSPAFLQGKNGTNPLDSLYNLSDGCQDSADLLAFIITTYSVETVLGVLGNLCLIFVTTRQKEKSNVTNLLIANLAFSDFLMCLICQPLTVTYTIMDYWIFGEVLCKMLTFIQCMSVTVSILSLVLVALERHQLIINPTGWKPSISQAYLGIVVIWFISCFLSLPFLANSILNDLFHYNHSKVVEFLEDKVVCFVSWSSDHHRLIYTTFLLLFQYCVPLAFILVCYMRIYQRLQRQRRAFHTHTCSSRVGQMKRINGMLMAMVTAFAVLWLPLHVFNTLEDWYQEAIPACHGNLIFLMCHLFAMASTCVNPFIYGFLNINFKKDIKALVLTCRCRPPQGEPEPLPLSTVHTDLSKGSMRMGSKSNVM
Experimental: BHK cells stably transfected with rat Y4 receptor: Cultivation and receptor binding was performed as described for hY1/BHK with exception of incubation medium (25 mM HEPES, 2.5 mM CaCl2, 1.0 mM MgCl2, pH 7.4) and final concentration of cell suspension 5×10^5 cells/ml. 24 h before receptor binding assay 1.0 mM IPTG was added for induction of expression. Incubation time for binding assay: 2 h.

Compound: N=C(N)NCCC[C@@H](NC(=O)C(c1ccccc1)c1ccccc1)C(=O)NCc1ccc(CNC(N)=O)cc1 [Compound C]
- IC50 (human Y2 receptor): > 1 µM
- food intake in 24 hour food deprived rats (result in words) [1]: significant reduction in food intake
- IC50 (rat Y4 receptor): > 10 µM
